Data taken from ChEMBL document CHEMBL3797042, “Hybrid Pyrrole-Imidazole Alkaloids from the Sponge Agelas sceptrum” (J Nat Prod, 2016).
Values after ≈ are worked out from the molar mass of the structure shown. Active and inactive are the calls of the source. No cut-off for these calls is given here.

Columns and labels:
Staphylococcus aureus [1] = test: Antimicrobial activity against methicillin-resistant Staphylococcus aureus after 24 hrs by microdilution method; assay type: functional, organism-based
Staphylococcus aureus [2] = test: Antimicrobial activity against methicillin-sensitive Staphylococcus aureus after 24 hrs by microdilution method; assay type: functional, organism-based
Micrococcus luteus = test: Antimicrobial activity against Micrococcus luteus after 24 hrs by microdilution method; assay type: functional
Pseudomonas aeruginosa = test: Antimicrobial activity against Pseudomonas aeruginosa after 24 hrs by microdilution method; assay type: functional, organism-based
Klebsiella pneumoniae = test: Antimicrobial activity against Klebsiella pneumoniae after 24 hrs by microdilution method; assay type: functional
Candida albicans = test: Antimicrobial activity against Candida albicans after 24 hrs by microdilution method; assay type: functional, organism-based
L929 = test: (§1) Cytotoxicity against mouse L929 cells after 5 days by WST-1 assay; assay type: cell-based; details: for IC90: mouse, l929, 120 h
[3] = (§2) Cytotoxicity against human KB3-1 cells after 5 days by WST-1 assay; assay type: functional, cell-based, KB 3-1
KB 3-1 = test: as §2; assay type: functional, cell-based
MCF7 = test: Cytotoxicity against human MCF7 cells after 5 days by WST-1 assay; assay type: functional, cell-based
[4] = Cytotoxicity against human FS4-LTM cells after 24 hrs by WST-1 assay; assay type: cell-based; details: for IC90: human, 24 h
[5] = as §1; assay type: cell-based; details: mouse, L929 cells
[6] = Homo sapiens, KB 3-1, 120 h, read-out: IC50

SMILES | MIC (Staphylococcus aureus [1]) | MIC (Staphylococcus aureus [2]) | MIC (Micrococcus luteus) | MIC (Pseudomonas aeruginosa) | MIC (Klebsiella pneumoniae) | MIC (Candida albicans) | IC50 (L929; l929) | IC90 (L929) | IC50 ([3]; kb 3-1) | IC90 (KB 3-1) | IC90 (MCF7) | IC50 (MCF7; mcf7) | IC50 [4] | IC90 [4] | IC90 ([3]; Homo sapiens, KB 3-1, 120 h) | IC50 [3, 6] | IC90 at 120 h [5] | IC50 (L929; Mus musculus, L929, 120 h, read-out: IC50) | IC90 (MCF7; Homo sapiens, MCF7, 120 h) | IC50 (MCF7; Homo sapiens, MCF7, 120 h, read-out: IC50)
C[n+]1cnc2[nH]c(=O)n(-c3nc(N)[nH]c3[C@@H]3[C@@H](CNC(=O)c4cc(Br)c[nH]4)[C@H](CNC(=O)c4cc(Br)c[nH]4)[C@H]3c3cnc(N)[nH]3)c2c1N | inactive | inactive | inactive | inactive | inactive | inactive | Not Active | Not Active | Not Active | inactive | inactive | Not Active | Not Active | Not Active |  |  |  |  |  | 
Nc1ncc([C@@H]2[C@@H](CNC(=O)c3ccc[nH]3)[C@H](CNC(=O)c3cc(Br)c[nH]3)[C@H]2c2cnc(N)[nH]2)[nH]1 | inactive | inactive | inactive | inactive | inactive | inactive | Not Active | Not Active |  |  | inactive | Not Active | Not Active | Not Active | 92 µM | 29 µM |  |  |  | 
Nc1ncc(/C=C/CNC(=O)c2cc(Br)c(Br)[nH]2)[nH]1 [OROIDIN] | inactive | inactive | inactive | inactive | inactive | inactive | Not Active | Not Active | Not Active | inactive | inactive | Not Active | Not Active | Not Active |  |  |  |  |  | 
Nc1ncc([C@@H]2[C@@H](CNC(=O)c3cc(Br)c[nH]3)[C@H](CNC(=O)c3cc(Br)c[nH]3)[C@H]2c2cnc(N)[nH]2)[nH]1 | inactive | inactive | 32 µM (≈ 19.8 µg/mL) | inactive | 32 µM (≈ 19.8 µg/mL) | inactive |  |  |  |  |  |  | Not Active | Not Active | 2390 µM | 80 µM | ≥ 238 µM | 193 µM | ≥ 238 µM | 238 µM
NCCC(=O)c1cccc2c1N[C@H](CNC(=O)c1cc(Br)c(Br)[nH]1)[C@@H](c1cnc(N)[nH]1)O2 | inactive | inactive | inactive | inactive | inactive | inactive | Not Active | Not Active |  |  | inactive | Not Active | Not Active | Not Active | ≥ 130 µM | 44 µM |  |  |  | 
